# Experimental data from patent US12534465B2, “5H-pyrrolo[3,2-d]pyrimidine-2,4-diamino compounds and antibody conjugates thereof” (SUTRO BIOPHARMA, INC., priority 2019, dated 2026).
# Experiments:
# mouse TLR7 = target: T1, mouse TLR7 (Mus musculus, UniProt P58681); experiment: HEK293-mouseTLR7 SEAP reporter assay (Example 8); format: cell-based; conditions: HEK293-mTLR7 SEAP reporter cells, 24 hrs
# T1 construct: host or cells: HEK293
# T1 sequence (P58681 27-1050): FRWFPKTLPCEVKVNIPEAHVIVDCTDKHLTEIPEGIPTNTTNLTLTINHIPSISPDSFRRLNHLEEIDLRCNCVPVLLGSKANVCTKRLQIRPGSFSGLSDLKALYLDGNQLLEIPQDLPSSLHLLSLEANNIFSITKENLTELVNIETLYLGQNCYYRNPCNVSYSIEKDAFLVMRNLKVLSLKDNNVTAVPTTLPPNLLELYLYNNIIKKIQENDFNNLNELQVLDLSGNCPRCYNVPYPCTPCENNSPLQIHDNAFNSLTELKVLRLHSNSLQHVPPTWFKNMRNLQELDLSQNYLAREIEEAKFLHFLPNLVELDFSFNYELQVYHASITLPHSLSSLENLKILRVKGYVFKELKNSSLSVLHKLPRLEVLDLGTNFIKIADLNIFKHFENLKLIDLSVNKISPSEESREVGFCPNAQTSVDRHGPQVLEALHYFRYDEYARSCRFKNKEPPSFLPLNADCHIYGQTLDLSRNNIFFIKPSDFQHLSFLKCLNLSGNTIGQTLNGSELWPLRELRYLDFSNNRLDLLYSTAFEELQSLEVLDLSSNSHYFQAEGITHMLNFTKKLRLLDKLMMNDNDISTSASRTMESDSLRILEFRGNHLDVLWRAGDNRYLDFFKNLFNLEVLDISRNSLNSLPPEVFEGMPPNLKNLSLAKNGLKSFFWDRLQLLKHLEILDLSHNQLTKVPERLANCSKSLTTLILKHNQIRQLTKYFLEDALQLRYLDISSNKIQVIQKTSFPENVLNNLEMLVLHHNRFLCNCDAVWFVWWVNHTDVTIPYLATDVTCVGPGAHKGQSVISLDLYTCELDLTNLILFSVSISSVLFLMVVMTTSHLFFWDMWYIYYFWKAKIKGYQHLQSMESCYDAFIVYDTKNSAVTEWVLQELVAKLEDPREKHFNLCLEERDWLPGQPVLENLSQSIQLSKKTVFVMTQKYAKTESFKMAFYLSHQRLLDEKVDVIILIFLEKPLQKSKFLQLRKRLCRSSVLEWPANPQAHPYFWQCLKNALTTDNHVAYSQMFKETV
# Protocol: (§1) In this example, the in vitro activity of compounds to activate human TLR7 (or human TLR8 or mouse TLR7) pathway was evaluated on HEK293 reporter cells transfected with human TLR7 (or human TLR8 or mouse TLR7) and an inducible SEAP (secreted embryonic alkaline phosphatase) reporter gene. The SEAP reporter gene is placed under the control of the IFN-β minimal promoter fused to five NF-κB and AP-1-binding sites. Stimulation with a TLR7 agonist activates NF-κB and AP-1 which induces the production of SEAP. Levels of SEAP were determined by HEK-Blue Detection medium.
# (§2) The in vitro activity of compounds on TLR7 (human and mouse) and TLR8 (human only) reporter cell lines was assessed as follows. 5-(2-methoxy-4-(piperazin-1-ylmethyl)benzyl)-N4-pentyl-5H-pyrrolo[3,2-d]pyrimidine-2,4-diamine (Compound 1) is a compound used for comparison and has the structure shown below:
# (§3) HEK293-humanTLR7 (hTLR7), HEK293-mouseTLR7 (mTLR7) and HEK293-humanTLR8 (hTLR8) reporter cell lines were purchased from Invivogen and cell lines were maintained in the manufacturer's recommended culture medium with required supplemental antibiotics. On the day of assay, the cells were harvested with Accutase and counted by the Vi-CELL Cell Viability Analyzers. Cells were resuspended in HEK blue detection medium and a total of 10,000 cells were seeded in each well of a 384-well flat bottom plate. Serial dilutions of test compounds (1:4 serial dilution starting from 5 μM) were added into treatment wells and assay plates were cultured at 37° C. in a CO2 incubator for 24 hrs. The plates were then read by spectrophotometry at 640 nm. Data was fitted with non-linear regression analysis, using a log(inhibitor) vs. response-variable slope, 3-parameter fit with GraphPad Prism. There result was reported in Table 1 as EC50 (the midpoint of the curve, or concentration at which 50% of the maximum effect was observed).
# human TLR7 = target: T2, human TLR7 (Homo sapiens, UniProt Q9NYK1); experiment: HEK293-humanTLR7 SEAP reporter assay (Example 8); format: cell-based; conditions: HEK293-hTLR7 SEAP reporter cells, 24 hrs
# T2 construct: host or cells: HEK293
# T2 sequence (Q9NYK1 27-1049): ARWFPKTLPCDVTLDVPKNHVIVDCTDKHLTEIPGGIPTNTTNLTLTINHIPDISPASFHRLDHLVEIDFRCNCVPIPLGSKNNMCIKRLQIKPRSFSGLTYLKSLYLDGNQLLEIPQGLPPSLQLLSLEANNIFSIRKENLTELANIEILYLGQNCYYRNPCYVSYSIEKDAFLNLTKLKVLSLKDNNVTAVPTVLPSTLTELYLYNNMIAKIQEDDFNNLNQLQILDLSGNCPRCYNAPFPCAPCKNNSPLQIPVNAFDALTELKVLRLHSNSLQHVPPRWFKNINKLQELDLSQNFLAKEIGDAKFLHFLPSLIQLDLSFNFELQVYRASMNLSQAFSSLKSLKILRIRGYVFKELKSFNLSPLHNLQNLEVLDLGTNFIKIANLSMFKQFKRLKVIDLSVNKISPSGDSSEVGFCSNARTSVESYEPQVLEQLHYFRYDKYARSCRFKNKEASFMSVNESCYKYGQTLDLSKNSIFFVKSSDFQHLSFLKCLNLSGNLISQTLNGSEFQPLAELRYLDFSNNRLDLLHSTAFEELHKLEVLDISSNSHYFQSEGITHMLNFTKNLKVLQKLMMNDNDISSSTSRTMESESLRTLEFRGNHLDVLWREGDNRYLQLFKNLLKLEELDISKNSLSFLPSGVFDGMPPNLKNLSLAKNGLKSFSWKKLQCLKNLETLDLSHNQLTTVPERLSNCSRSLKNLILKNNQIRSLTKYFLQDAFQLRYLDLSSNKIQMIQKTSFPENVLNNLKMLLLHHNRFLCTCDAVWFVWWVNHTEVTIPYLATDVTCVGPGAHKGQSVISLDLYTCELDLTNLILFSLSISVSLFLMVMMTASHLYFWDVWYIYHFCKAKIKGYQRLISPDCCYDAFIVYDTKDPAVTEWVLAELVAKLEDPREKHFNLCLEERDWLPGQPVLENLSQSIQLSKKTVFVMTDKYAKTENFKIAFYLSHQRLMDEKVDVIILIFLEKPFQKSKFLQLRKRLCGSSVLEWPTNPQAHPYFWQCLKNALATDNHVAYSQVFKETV
# Protocol: as §1, §2, §3
EC50 (mouse TLR7) [nM],EC50 (human TLR7) [nM],Compound
4.6,1.9,"CCCCCNc1nc(N)nc2ccn(Cc3ccc(CN4CCNCC4)cc3OC)c12 [Compound 1, 5-(2-methoxy-4-(piperazin-1-ylmethyl)benzyl)-N4-pentyl-5H-pyrrolo[3,2-d]pyrimidine-2,4-diamine, reference compound]"
3.7,1.5,"CCCCCNc1nc(N)nc2ccn(Cc3ccc(CN4CC5(CNCCO5)C4)cc3OC)c12 [Compound 10, 5-[[2-methoxy-4-(5-oxa-2,8-diazaspiro[3.5]nonan-2-ylmethyl)phenyl]methyl]-N4-pentyl-pyrrolo[3,2-d]pyrimidine-2,4-diamine]"

Compound,EC50 (mouse TLR7) [nM],EC50 (human TLR7) [nM]
"CCCCCNc1nc(N)nc2ccn(Cc3ccc(CN4CC(NC)C4)cc3OC)c12 [Compound 2, 5-(2-methoxy-4-((3-(methylamino)azetidin-1-yl)methyl)benzyl)-N4-pentyl-5H-pyrrolo[3,2-d]pyrimidine-2,4-diamine]",10.2,1.6
